Results reported in article PMC10376326, “Novel Acylselenourea Derivatives: Dual Molecules with Anticancer and Radical Scavenging Activity” (Antioxidants, 2023).
Where two headings read alike, the source gives them in different places.

Assays:
[1] = set-up: method as in PMID 36671001; conditions: selenoester analogs, 0.03 mg/mL, 90 min; cited from earlier work
[2] = test system: HT-29 (colon) cancer cell line; experiment: MTT cell viability assay, HT-29; format: cell-based; conditions: Homo sapiens, HT-29, 48 h, read-out: Cell growth %; for activity at 10 µM: HT-29, 10 µM; for activity at 50 µM: HT-29, 50 µM
Experimental: (§1) Cell lines were purchased from the American Type Culture Collection (ATCC). Cell lines MDA-MB-231, HTB-54, DU-145, and BEAS-2B were cultured in RPMI 1640 medium (Gibco, Thermo Fisher Scientific, Gaithersburg, MD, USA) supplemented with 10% fetal bovine serum (FBS; Gibco), 100 units/mL penicillin, and […] streptomycin (Gibco). HT-29 cell line was grown in McCoy’s 5A (Gibco), 10% FBS, 100 units/mL penicillin, and 100 μg/mL streptomycin. Cells were maintained at 37 °C and 5% CO2. The culture medium was changed every three days.
(§2) The cell viability of each compound was measured by MTT colorimetric assay. Each compound was dissolved in DMSO at a concentration of 0.01 M. Each compound was tested at two different concentrations (10 and 50 µM) in MDA-MB-231 (breast), HTB-54 (lung), DU-145 (prostate), and HT-29 (colon) human cancer cell lines. Serial dilutions were prepared with supplemented culture medium. […] IC50 and selectivity indexes (SI) were determined.
(§3) Briefly, 1 × 10^4 tumor cells per well were grown in 96-well plates for 24 h. Then, these cells were incubated for 48 h with either DMSO (control) or a different concentration of each of the tested compounds. The cell viability was determined by adding 20 μL of MTT two hours and a half before the termination point. After this time, the culture medium was removed. The resulting formazan crystals were dissolved in 50 μL of DMSO, and the absorbance was measured at 570 nm. Results are expressed as % cell growth. The data were obtained from at least three independent experiments performed in quadruplicate.

[3] = DPPH radical scavenging assay; format: biochemical; conditions: for DPPH Inhibitory%: acylselenourea analogs
Experimental: Different methods are available to quantify the antioxidant capacity of natural or novel molecules. Notable among these are the ABTS^•+ and DPPH^• methods, which measure the quenching efficiency in vitro for known concentrations of preformed radicals. In this work, the DPPH^• colorimetric assay was carried out. Measurements were recorded on a BioTeck PowerWave XS spectrophotometer (BioTeck Instruments, Winooski, VT, USA) and data were collected using KCJunior v.1.41. software (BioTeck Instruments, Winooski, VT, USA). Compounds with potent activity were selected to further determine their protective effect against ROS-induced cell death caused by H2O2.
DPPH colorimetric assay was performed to determine the in vitro radical scavenging activity of the acylselenourea derivatives. DPPH assay was performed as described by Svinyarov. For each acylselenourea, a stock solution of 1 mg/mL in dimethyl sulfoxide (DMSO) was made, and these solutions were used to prepare the different concentrations employed in the assay. The compounds were tested at two different concentrations (0.003 and 0.03 mg/mL). Intermediate solutions were prepared in methanol and a volume of 100 µL of each was added to each well of the plate. Then, 100 µL of DPPH^• (previously prepared at a concentration of 0.04 mg/mL in methanol and preserved in the dark) was added to the previous methanolic acylselenourea solutions. The discoloration of the purple radical to the yellow reduced form was followed at 517 nm at different time points (0, 5, 15, 30, 60, 90, and 120 min). Ascorbic acid and trolox were used as positive controls. All measurements were carried out in triplicate. Results are expressed as the percentage of the radicals scavenged, calculated using the following formula: (1) % DPPH radical scavenging=Acontrol - Asample/Acontrol × 100 where Acontrol refers to the absorbance of the negative control and Asample refers to the absorbance of the tested compounds. Results are expressed as percentage of DPPH radical scavenging ± SD.

[4] = test system: MDA-MB-231 (breast) cancer cell line; experiment: MTT cell viability assay, MDA-MB-231; format: cell-based, human; conditions: Homo sapiens, MDA-MB-231, 48 h; for activity at 10 µM: read-out: Cell growth %, MDA-MB-231, 10 µM, 48 h, MTT; for activity at 50 µM: read-out: Cell growth %, MDA-MB-231, 50 µM, 48 h, MTT
Experimental: as §1, §2, §3

[5] = test system: MDA-MB-231, HT-29, HTB-54 and DU-145 cancer cell lines; experiment: MTT cell viability assay, statements over the panel of cancer cell lines; format: cell-based, human; conditions: 10 µM, over the four cancer cell lines
Experimental: as §1, §2, §3

[6] = test system: HTB-54 (lung) cancer cell line; experiment: MTT cell viability assay, HTB-54; format: cell-based, human; conditions: for activity at 10 µM: read-out: Cell growth %, HTB-54, 10 µM, 48 h, MTT; for activity at 50 µM: read-out: Cell growth %, HTB-54, 50 µM, 48 h, MTT
Experimental: as §1, §2, §3

[7] = test system: DU-145 (prostate) cancer cell line; experiment: MTT cell viability assay, DU-145; format: cell-based, human; conditions: for activity at 10 µM / activity at 50 µM: Homo sapiens, DU-145, 48 h; for activity at 10 µM: read-out: Cell growth %, DU-145, 10 µM, 48 h, MTT; for activity at 50 µM: read-out: Cell growth %, DU-145, 50 µM, 48 h, MTT
Experimental: as §1, §2, §3

[8] = test system: non-malignant BEAS-2B lung cell line; experiment: MTT cell viability assay, BEAS-2B; format: cell-based; conditions: Homo sapiens, normal lung, 48 h
Experimental: as §1, §2, §3

Row | Compound | activity at 10 µM [2] | activity at 50 µM [2] | inhibition ([3]; 0.003 mg/mL, 0 min) | inhibition ([3]; 0.003 mg/mL, 5 min) | inhibition ([3]; 0.003 mg/mL, 15 min) | inhibition ([3]; 0.003 mg/mL, 30 min) | inhibition ([3]; 0.003 mg/mL, 60 min) | inhibition ([3]; 0.003 mg/mL, 90 min) | inhibition ([3]; 0.003 mg/mL, 120 min) | inhibition ([3]; 0.03 mg/mL, 0 min) | inhibition ([3]; 0.03 mg/mL, 5 min) | inhibition ([3]; 0.03 mg/mL, 15 min) | inhibition ([3]; 0.03 mg/mL, 30 min) | inhibition ([3]; 0.03 mg/mL, 60 min) | inhibition ([3]; 0.03 mg/mL, 120 min) | activity at 10 µM [4] | activity at 50 µM [4] | activity at 10 µM ([6]; Homo sapiens, HTB-54, 48 h) | activity at 50 µM ([6]; Homo sapiens, HTB-54, 48 h) | activity at 10 µM [7] | other results
1 | C#CC[Se]C(=O)c1cccs1 [C00003 2-thiophenyl] |  |  |  |  |  |  |  |  |  |  |  |  |  |  |  |  |  |  |  |  | DPPH Inhibitory% [1]: 0.0 ± 2.1%
2 | C#CC[Se]C(=O)c1cccnc1 [C00003 3-pyridyl] |  |  |  |  |  |  |  |  |  |  |  |  |  |  |  |  |  |  |  |  | DPPH Inhibitory% [1]: 7.4 ± 0.7%
3 | C#CC[Se]C(=O)c1ccc2c(c1)OCO2 [C00003 5-benzo[d][1, 3]dioxyl] |  |  |  |  |  |  |  |  |  |  |  |  |  |  |  |  |  |  |  |  | DPPH Inhibitory% [1]: 4.2 ± 8.0%
4 | C#CC[Se]C(=O)c1ccccc1 [C00003 phenyl] |  |  |  |  |  |  |  |  |  |  |  |  |  |  |  |  |  |  |  |  | DPPH Inhibitory% [1]: 3.5 ± 0.9%
5 | C=CCNC(=[Se])NC(=O)c1ccco1 [Compound 1.II, N-(allylcarbamoselenoyl)furan-2-carboxamide] | 95 ± 15.7% | 16.6 ± 5.3% | 1.7 ± 0.3% | 5.4 ± 0.5% | 8.8 ± 0.9% | 12.1 ± 1.2% | 16.5 ± 1.5% | 19.5 ± 1.7% | 21.1 ± 1.4% | 16 ± 1.9% | 45.2 ± 5.1% | 65.4 ± 4.1% | 85.4 ± 4.9% | 96.5 ± 0.6% | 96.5 ± 0.5% | 80.4 ± 8.4% | 14.5 ± 7.9% | 54.9 ± 11.2% | 11.1 ± 5.2% | 81.5 ± 13.5% | time to reach the highest DPPH inhibition ([3]; 0.03 mg/mL): 60 min; DPPH Inhibitory% ([3]; 0.03 mg/mL, 90 min): 96.6 ± 0.6%; cell growth % [5]: 54.8–95.0%; activity at 50 µM [7]: 10.6 ± 5.7%
6 | C#CCNC(=[Se])NC(=O)c1cccs1 [Compound 2.III, N-(prop-2-in-1-ylcarbamoselenoyl)thiophene-2-carboxamide] | 43.4 ± 4.2% | 20.6 ± 4% | 2.4 ± 0.6% | 4.3 ± 0.4% | 5.4 ± 0.3% | 6.5 ± 0.5% | 7.1 ± 0.5% | 7.3 ± 0.6% | 7.3 ± 0.6% | 14.5 ± 2.3% | 12.8 ± 3% | 19.8 ± 2.8% | 24.8 ± 2.6% | 30.2 ± 2.9% | 34.4 ± 2.9% | 27.4 ± 5.4% | 9.48 ± 7.8% | 76.8 ± 6.8% | 44.7 ± 3.5% | 12.8 ± 2.8% | DPPH Inhibitory% ([3]; 0.03 mg/mL, 90 min): 33.0 ± 3.1%; IC50 ([6]; Homo sapiens, HTB-54, 48 h, read-out: IC50 HTB-54, Lung, MTT, 48 h): 11.6 ± 1.6 µM; SI ([6]; IC50 (BEAS-2B)/IC50 (HTB-54)): 2.3; activity at 50 µM [7]: 14.3 ± 6.7%; IC50 [8]: 26.6 ± 4 µM
7 | C=CCNC(=[Se])NC(=O)/C=C/c1ccccc1 [Compound 6.II, N-(allylcarbamoselenoyl)cinnamamide] | 94.7 ± 5.3% | 56.1 ± 11% | 0% | 0% | 0% | 0% | 0% | 0.5 ± 2.3% | 1.1 ± 2.3% | 0% | 1 ± 1.7% | 4.6 ± 1.3% | 9.8 ± 1.1% | 18.8 ± 0.9% | 34.2 ± 0.7% | 51.8 ± 6.8% | 30.5 ± 7.1% | 68.7 ± 8.2% | 44.1 ± 10.6% | 57.3 ± 3.6% | DPPH Inhibitory% ([3]; 0.03 mg/mL, 90 min): 26.7 ± 0.6%; cell growth % ([7]; DU-145, 10 µM, 48 h, MTT): 57.30%; activity at 50 µM [7]: 14.6 ± 4.5%
8 | C=CCNC(=[Se])NC(=O)c1ccc2c(c1)OCO2 [Compound 8.II, N-(allylcarbamoselenoyl)benzo[d][1,3]dioxole-5-carboxamide] | 83.5 ± 16.4% | 26.6 ± 3.8% | 1.2 ± 1.4% | 2.8 ± 1.3% | 5 ± 1.2% | 7.1 ± 1.1% | 9.7 ± 1.1% | 10.9 ± 1.2% | 11.7 ± 1.2% | 17.6 ± 4.6% | 39 ± 3% | 55.5 ± 2.1% | 68 ± 1.7% | 81.4 ± 1.3% | 93.7 ± 1.4% | 80.7 ± 6.4% | 15.5 ± 7.6% | 51.9 ± 15% | 20 ± 6.6% | 88.6 ± 10.1% | DPPH Inhibitory% ([3]; 0.03 mg/mL, 90 min): 88.2 ± 1.3%; activity at 50 µM [7]: 10.3 ± 4.2%
9 | C=CCNC(=O)c1cccc(C(=O)NC(=[Se])NCC=C)c1 [Compound 11.II, N^1-allyl-N^3-(allylcarbamoselenoyl)isophthalamide] | 88.1 ± 4.8% | 30.8 ± 4% | 0% | 2.5 ± 1.4% | 5.8 ± 1.2% | 8.6 ± 0.9% | 11.6 ± 1% | 12.8 ± 0.8% | 13.5 ± 0.7% | 11 ± 3% | 38.5 ± 0.3% | 56.8 ± 0.6% | 70.1 ± 1% | 83 ± 1% | 94.3 ± 1.2% | 77.1 ± 10.1% | 14.7 ± 7.8% | 48.3 ± 6.9% | 5.94 ± 4.7% | 93.8 ± 8% | inhibition ([3]; 0.03 mg/mL, 90 min): 89.6 ± 1.2%; activity at 50 µM [7]: 22 ± 5.8%
